Data from BindingDB's records for doi:10.1021/acschembio.6b00962 (University of California Riverside, 2017).
pIC50, pKd: −log10 of the molar value. Non-standard residues stand in square brackets, D forms with d. Residues, ends and D or L forms follow the SMILES beside them. ξ: configuration not given here. *: point of attachment. hCys = N[C@@H](CCS)C(=O)O; Dap = NC[C@H](N)C(=O)O; ξDap = NCC(N)C(=O)O; ClAc = O=C(CCl)*

What was measured:
Test in all cases: DELFIA
[1] = molecular target: Induced myeloid leukemia cell differentiation protein Mcl-1 (Homo sapiens, UniProt Q07820)
Induced myeloid leukemia cell differentiation protein Mcl-1, sequence (Q07820 whole entry): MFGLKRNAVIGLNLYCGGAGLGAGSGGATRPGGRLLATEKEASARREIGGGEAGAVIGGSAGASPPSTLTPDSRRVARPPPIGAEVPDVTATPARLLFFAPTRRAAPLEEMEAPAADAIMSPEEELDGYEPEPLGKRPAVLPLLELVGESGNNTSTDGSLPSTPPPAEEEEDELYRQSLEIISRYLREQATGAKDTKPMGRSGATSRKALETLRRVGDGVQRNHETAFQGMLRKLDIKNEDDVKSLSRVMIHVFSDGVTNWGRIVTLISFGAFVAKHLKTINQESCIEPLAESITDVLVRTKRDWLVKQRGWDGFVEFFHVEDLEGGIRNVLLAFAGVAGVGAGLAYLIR
Protocol: (§1) After 1 h of incubation at RT to allow the immunoreaction to complete, a second washing step allowed removal of the unbound protein in complex with Eu antibodies if displaced by a test compound. […] Each well received a final DMSO concentration equal to 1%. Protein, peptide, and antibody solutions were prepared in DELFIA assay buffer (PerkinElmer).

[2] = molecular target: T1, Bcl-2-related protein A1 [1-149] (Human, UniProt Q16548)
T1 construct: 1-149
T1 sequence (Q16548 whole entry): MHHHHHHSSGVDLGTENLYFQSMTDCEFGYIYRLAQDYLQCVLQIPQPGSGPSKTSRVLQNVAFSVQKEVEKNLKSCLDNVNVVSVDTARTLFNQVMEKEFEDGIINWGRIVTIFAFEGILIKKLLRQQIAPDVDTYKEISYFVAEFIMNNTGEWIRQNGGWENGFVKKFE
Protocol: as §1

[3] = molecular target: Apoptosis regulator Bcl-2 (Homo sapiens, UniProt P10415)
Apoptosis regulator Bcl-2, sequence (P10415 whole entry): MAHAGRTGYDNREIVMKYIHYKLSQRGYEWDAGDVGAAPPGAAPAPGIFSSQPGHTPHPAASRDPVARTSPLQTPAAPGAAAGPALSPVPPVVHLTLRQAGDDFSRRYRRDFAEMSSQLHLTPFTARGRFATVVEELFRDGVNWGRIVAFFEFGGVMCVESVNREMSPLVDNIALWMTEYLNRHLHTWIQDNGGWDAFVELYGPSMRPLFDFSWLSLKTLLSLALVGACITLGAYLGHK
Protocol: as §1

[4] = molecular target: Isoform Bcl-X(L) of Bcl-2-like protein 1 (Bcl-xL) (Homo sapiens, UniProt Q07817)
Isoform Bcl-X(L) of Bcl-2-like protein 1 (Bcl-xL), sequence (Q07817 whole entry G70A, canonical isoform): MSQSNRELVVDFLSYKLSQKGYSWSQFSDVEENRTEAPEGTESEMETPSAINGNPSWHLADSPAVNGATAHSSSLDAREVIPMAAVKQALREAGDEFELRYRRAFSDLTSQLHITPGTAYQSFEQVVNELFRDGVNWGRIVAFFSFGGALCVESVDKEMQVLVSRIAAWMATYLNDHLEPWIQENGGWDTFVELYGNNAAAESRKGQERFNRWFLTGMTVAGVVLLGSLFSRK
Protocol: as §1

| Compound | pIC50 [1] | pKd ([1]; pH 7.4, 25 °C) | pIC50 [2] | pIC50 [3] | pIC50 [4] | pKd ([4]; pH 7.4) | pKd ([2]; pH 7.4, 25 °C) |
| --- | --- | --- | --- | --- | --- | --- | --- |
| CC[C@H](C)[C@H](NC(=O)[C@H](CCCCN)NC(=O)[C@H](CCCNC(=N)N)NC(=O)[C@H](CC(C)C)NC(=O)[C@H](CCC(N)=O)NC(=O)[C@H](C)NC(=O)[C@H](C)NC(=O)[C@H](Cc1ccccc1)NC(=O)[C@H](CCC(=O)O)NC(=O)[C@@H]1CCCN1C(=O)[C@@H]1CCCN1C(=O)[C@H](CC(C)C)NC(=O)[C@H](CCC(=O)O)NC(=O)[C@H](C)NC(C)=O)C(=O)NCC(=O)N[C@@H](CC(=O)O)C(=O)N[C@@H](CCCCN)C(=O)N[C@H](C(=O)N[C@@H](Cc1ccc(O)cc1)C(=O)N[C@@H](CS)C(N)=O)C(C)C |  |  | < 6.00 | < 6.00 | < 6.00 |  |  |
| C=CCCC[C@](C)(NC(=O)[C@H](CC(=O)O)NC(=O)CNC(=O)[C@@H](NC(=O)[C@](C)(CCCC=C)NC(=O)[C@H](CCCNC(=N)N)NC(=O)[C@H](CC(C)C)NC(=O)[C@H](CCC(=O)O)NC(=O)[C@H](CCC(N)=O)NC(=O)[C@H](C)NC(=O)C(CNC(=O)CCl)NC(C)=O)[C@@H](C)CC)C(=O)N[C@@H](Cc1ccccc1)C(=O)N[C@@H](CC(N)=O)C(=O)N[C@@H](C)C(=O)N[C@@H](Cc1ccc(O)cc1)C(=O)N[C@@H](Cc1ccc(O)cc1)C(=O)N[C@@H](C)C(=O)N[C@@H](CCCNC(=N)N)C(=O)N[C@@H](CCCNC(=N)N)C(N)=O (some centres not stated) [130D11] | 7.49 |  | 7.86 | 6.70 | 6.66 |  |  |
| Ac-CATQLRRFGDKLNFRQKLLN-NH2 | 6.64 |  | 8.12 | < 6.00 | < 6.00 |  |  |
| CC[C@H](C)[C@H](NC(=O)[C@H](CCCNC(=N)N)NC(=O)[C@H](CCCNC(=N)N)NC(=O)[C@H](CC(C)C)NC(=O)[C@H](CCC(=O)O)NC(=O)[C@H](CCC(N)=O)NC(=O)[C@H](C)NC(=O)[C@@H](NC(=O)[C@H](CNC(=O)CCl)NC(C)=O)[C@@H](C)CC)C(=O)NCC(=O)N[C@@H](CC(=O)O)C(=O)N[C@@H](CCC(=O)O)C(=O)N[C@@H](Cc1ccccc1)C(=O)N[C@@H](CC(N)=O)C(=O)N[C@@H](C)C(=O)N[C@@H](Cc1ccc(O)cc1)C(=O)N[C@@H](Cc1ccc(O)cc1)C(=O)N[C@@H](C)C(=O)N[C@@H](CCCNC(=N)N)C(=O)N[C@@H](CCCNC(=N)N)C(N)=O [130E7] (Ac-[Dap](ClAc)IAQELRRIGDEFNAYYARR-NH2) |  |  | 8.06 | 7.57 | 7.33 | 7.59 | 8.59 |
| CC[C@H](C)[C@H](NC(=O)[C@H](CCCNC(=N)N)NC(=O)[C@H](CCCNC(=N)N)NC(=O)[C@H](CC(C)C)NC(=O)[C@H](CCC(N)=O)NC(=O)[C@H](C)NC(=O)[C@H](CS)NC(=O)[C@H](CCC(=O)O)NC(=O)[C@H](CC(=O)O)NC(=O)[C@H](CCCCN)NC(=O)[C@H](CC(C)C)NC(=O)[C@H](CC(=O)O)NC(=O)[C@H](C)NC(=O)[C@@H]1CCCN1C(C)=O)C(=O)NCC(=O)N[C@@H](CC(=O)O)C(=O)N[C@@H](CCCCN)C(=O)N[C@H](C(=O)N[C@@H](CC(N)=O)C(=O)N[C@@H](CC(C)C)C(N)=O)C(C)C |  |  | 6.37 | < 6.00 | < 6.00 |  |  |
| CC(=O)NC(CNC(=O)CCl)C(=O)N[C@@H](C)C(=O)N[C@H](C(=O)N[C@@H](CCC(N)=O)C(=O)N[C@@H](CC(C)C)C(=O)N[C@@H](CCCNC(=N)N)C(=O)N[C@@H](CCCNC(=N)N)C(=O)N[C@@H](Cc1ccccc1)C(=O)NCC(=O)N[C@@H](CC(=O)O)C(=O)N[C@@H](CCCCN)C(=O)N[C@@H](CC(C)C)C(=O)N[C@@H](CC(N)=O)C(=O)N[C@@H](Cc1ccccc1)C(=O)N[C@@H](CCCNC(=N)N)C(=O)N[C@@H](CCC(N)=O)C(=O)N[C@@H](CCCCN)C(=O)N[C@@H](CC(C)C)C(=O)N[C@@H](CC(C)C)C(=O)N[C@@H](CC(N)=O)C(N)=O)[C@@H](C)O (some centres not stated) [λ_hNOXA] (Ac-[ξDap](ClAc)ATQLRRFGDKLNFRQKLLN-NH2) | 6.63 |  |  |  |  |  |  |

Continued, in another order:

| pIC50 [1] | pKd ([1]; pH 7.4, 25 °C) | pIC50 [2] | pIC50 [3] | pIC50 [4] | Compound | pKd ([4]; pH 7.4) | pKd ([2]; pH 7.4, 25 °C) |
| --- | --- | --- | --- | --- | --- | --- | --- |
| 7.64 | 8.70 |  |  |  | CC[C@H](C)[C@H](NC(=O)C(CNC(=O)CCl)NC(C)=O)C(=O)N[C@@H](C)C(=O)N[C@@H](CCC(N)=O)C(=O)N[C@@H](CCC(=O)O)C(=O)N[C@@H](CC(C)C)C(=O)N[C@@H](CCCNC(=N)N)C(=O)N[C@@H](CCCNC(=N)N)C(=O)N[C@H](C(=O)NCC(=O)N[C@@H](CC(=O)O)C(=O)N[C@@H](CCC(=O)O)C(=O)N[C@@H](Cc1ccccc1)C(=O)N[C@@H](CC(N)=O)C(=O)N[C@@H](C)C(=O)N[C@@H](Cc1ccc(O)cc1)C(=O)N[C@@H](Cc1ccc(O)cc1)C(=O)N[C@@H](C)C(=O)N[C@@H](CCCNC(=N)N)C(=O)N[C@@H](CCCNC(=N)N)C(N)=O)[C@@H](C)CC (some centres not stated) [130E7] (Ac-[ξDap](ClAc)IAQELRRIGDEFNAYYARR-NH2) |  |  |
| < 6.00 |  | < 6.00 |  |  | CC1(C)CCC(CN2CCN(c3ccc(C(=O)NS(=O)(=O)c4ccc(NCC5CCOCC5)c([N+](=O)[O-])c4)c(Oc4cnc5[nH]ccc5c4)c3)CC2)=C(c2ccc(Cl)cc2)C1 |  |  |
| 6.58 |  | 7.08 | < 6.00 | < 6.00 | CC(=O)N[C@@H](CCS)C(=O)N[C@@H](C)C(=O)N[C@H](C(=O)N[C@@H](CCC(N)=O)C(=O)N[C@@H](CC(C)C)C(=O)N[C@@H](CCCNC(=N)N)C(=O)N[C@@H](CCCNC(=N)N)C(=O)N[C@@H](Cc1ccccc1)C(=O)NCC(=O)N[C@@H](CC(=O)O)C(=O)N[C@@H](CCCCN)C(=O)N[C@@H](CC(C)C)C(=O)N[C@@H](CC(N)=O)C(=O)N[C@@H](Cc1ccccc1)C(=O)N[C@@H](CCCNC(=N)N)C(=O)N[C@@H](CCC(N)=O)C(=O)N[C@@H](CCCCN)C(=O)N[C@@H](CC(C)C)C(=O)N[C@@H](CC(C)C)C(=O)N[C@@H](CC(N)=O)C(N)=O)[C@@H](C)O (Ac-[hCys]ATQLRRFGDKLNFRQKLLN-NH2) |  |  |
| < 6.00 |  | 7.82 | < 6.00 | < 6.00 | Ac-CATQLRRFGDKLN-NH2 |  |  |
